Tests used:
[1] = tested on: TGF-β-stimulated SMAD3 phosphorylation in BEAS-2B cells; test: Cellular ALK5 potency assay, inhibition of TGF-β stimulated pSMAD3 formation in BEAS-2B cells; assay type: cell-based; details: Homo sapiens, pSMAD3, TGF-β 10 ng/mL, read-out: BEAS2B pIC50 (converted)
Method in brief: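 Read-out is AlphaLISA detection of phospho-SMAD3 in lysates of BEAS-2B human lung epithelial cells. Cells are exposed to compound for 1 hour, then to 10 ng/mL TGF-β (final) for 30 minutes. Values are pIC50 from concentration–response curves.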

[2] = molecular target: T1, recombinant human ALK5 (TGF-βR1) protein (Homo sapiens, UniProt P36897); test: Biochemical ALK5 (TGF-βR1) assay to measure pKi (LANCE Ultra ULight kinase assay); details: apparent pKi, converted from pIC50 by Cheng-Prusoff
T1 construct: purchased Life Technologies PR9075A
T1 sequence (P36897 34-503): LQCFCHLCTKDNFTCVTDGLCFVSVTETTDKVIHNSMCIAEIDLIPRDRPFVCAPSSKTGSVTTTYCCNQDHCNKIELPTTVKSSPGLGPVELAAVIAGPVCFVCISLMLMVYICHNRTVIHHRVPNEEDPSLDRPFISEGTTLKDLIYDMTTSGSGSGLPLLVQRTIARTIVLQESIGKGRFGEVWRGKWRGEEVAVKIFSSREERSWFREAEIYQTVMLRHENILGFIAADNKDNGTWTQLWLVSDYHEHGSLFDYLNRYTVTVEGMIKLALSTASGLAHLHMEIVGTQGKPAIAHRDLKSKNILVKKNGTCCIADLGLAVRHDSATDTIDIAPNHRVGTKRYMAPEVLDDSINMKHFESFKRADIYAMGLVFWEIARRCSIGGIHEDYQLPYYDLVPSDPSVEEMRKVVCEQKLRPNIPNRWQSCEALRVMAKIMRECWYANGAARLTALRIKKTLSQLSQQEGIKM
Method in brief: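 Europium TR-FRET kinase assay: the enzyme is exposed to compound for 60 min at room temperature, and reaction with ATP runs 60 min at 37 °C. Percent inhibition relative to DMSO and SD-208 controls gives pIC50, which is converted to pKi.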

| Compound | Ki [2] | IC50 [1] |
| --- | --- | --- |
| Cc1cccc(-c2nc(Nc3ccnc(Nc4cccc(C(=O)O)c4)n3)c3cccn3n2)n1 [Compound 1017, 3-[[4-[[2-(6-methyl-2-pyridyl)pyrrolo[2,1-f][1,2,4]triazin-4-yl]amino]pyrimidin-2-yl]amino]benzoic acid] | 0.398 to 3.16 nM | 200 to 1260 nM |
| COC(=O)Cc1ccc(Nc2nccc(Nc3nc(-c4cccc(C)n4)nn4cccc34)n2)cc1 [Compound 1019, methyl 2-[4-[[4-[[2-(6-methyl-2-pyridyl)pyrrolo[2,1-f][1,2,4]triazin-4-yl]amino]pyrimidin-2-yl]amino]phenyl]acetate] | 0.398 to 3.16 nM | 200 to 1260 nM |
| Cc1cccc(-c2nc(Nc3ccnc(Nc4ccc(C(=O)O)cn4)n3)c3cccn3n2)n1 [Compound 1020] | 3.98 to 31.6 nM | 200 to 1260 nM |
| Cc1cccc(-c2nc(Nc3ccnc(Nc4ccc(C(=O)O)cc4)n3)c3cccn3n2)n1 [Compound 1021, 4-[[4-[[2-(6-methyl-2-pyridyl)pyrrolo[2,1-f][1,2,4]triazin-4-yl]amino]pyrimidin-2-yl]amino]benzoic acid] | 0.398 to 3.16 nM | 25.1 to 158 nM |
| Cc1cccc(-c2nc(Nc3ccnc(Nc4nc(C(=O)O)cs4)n3)c3cccn3n2)n1 [Compound 1022, 2-[[4-[[2-(6-methyl-2-pyridyl)pyrrolo[2,1-f][1,2,4]triazin-4-yl]amino]pyrimidin-2-yl]amino]thiazole-4-carboxylic acid] | 0.398 to 3.16 nM | 200 to 1260 nM |
| Cc1cccc(-c2nc(Nc3ccnc(Nc4csc(C(=O)O)c4)n3)c3cccn3n2)n1 [Compound 1023, 4-[[4-[[2-(6-methyl-2-pyridyl)pyrrolo[2,1-f][1,2,4]triazin-4-yl]amino]pyrimidin-2-yl]amino]thiophene-2-carboxylic acid] | 0.398 to 3.16 nM | 200 to 1260 nM |
| Cc1cccc(-c2nc(Nc3ccnc(Nc4ccc(NC(=O)C5CCCNC5)cc4)n3)c3cccn3n2)n1 (stereo not shown) [Compound 1032, N-[4-[[4-[[2-(6-methyl-2-pyridyl)pyrrolo[2,1-f][1,2,4]triazin-4-yl]amino]pyrimidin-2-yl]amino]phenyl]piperidine-3-carboxamide] | 0.0398 to 0.316 nM | 25.1 to 158 nM |
| Cc1cccc(-c2nc(Nc3ccnc(Nc4ccc(C(=O)N5CCC6(CC5)CNC6)cc4)n3)c3cccn3n2)n1 [Compound 1033, 2,7-diazaspiro[3.5]nonan-7-yl-[4-[[4-[[2-(6-methyl-2-pyridyl)pyrrolo[2,1-f][1,2,4]triazin-4-yl]amino]pyrimidin-2-yl]amino]phenyl]methanone] | 0.0398 to 0.316 nM | 25.1 to 158 nM |
| Cc1cccc(-c2nc(Nc3ccnc(Nc4ccc(C(=O)NC5CNC5)cc4)n3)c3cccn3n2)n1 [Compound 1034, N-(azetidin-3-yl)-4-[[4-[[2-(6-methyl-2-pyridyl)pyrrolo[2,1-f][1,2,4]triazin-4-yl]amino]pyrimidin-2-yl]amino]benzamide] | 0.0398 to 0.316 nM | 25.1 to 158 nM |
| Cc1cccc(-c2nc(Nc3ccnc(Nc4ccc(C(=O)NCC5CNC5)cc4)n3)c3cccn3n2)n1 [Compound 1035, N-(azetidin-3-ylmethyl)-4-[[4-[[2-(6-methyl-2-pyridyl)pyrrolo[2,1-f][1,2,4]triazin-4-yl]amino]pyrimidin-2-yl]amino]benzamide] | 0.0398 to 0.316 nM | 25.1 to 158 nM |
| Cc1cccc(-c2nc(Nc3ccnc(Nc4ccc(C(=O)NC5CCNC5)cc4)n3)c3cccn3n2)n1 (stereo not shown) [Compound 1036, 4-[[4-[[2-(6-methyl-2-pyridyl)pyrrolo[2,1-f][1,2,4]triazin-4-yl]amino]pyrimidin-2-yl]amino]-N-pyrrolidin-3-yl-benzamide] | 0.0398 to 0.316 nM | 25.1 to 158 nM |
| Cc1cccc(-c2nc(Nc3ccnc(Nc4ccc(C(=O)NC5CCNCC5)cc4)n3)c3cccn3n2)n1 [Compound 1037, 4-[[4-[[2-(6-methyl-2-pyridyl)pyrrolo[2,1-f][1,2,4]triazin-4-yl]amino]pyrimidin-2-yl]amino]-N-(4-piperidyl)benzamide] | 0.0398 to 0.316 nM | 25.1 to 158 nM |
| Cc1cccc(-c2nc(Nc3ccnc(Nc4ccc(C(=O)N5CCNCC5)cc4)n3)c3cccn3n2)n1 [Compound 1038, [4-[[4-[[2-(6-methyl-2-pyridyl)pyrrolo[2,1-f][1,2,4]triazin-4-yl]amino]pyrimidin-2-yl]amino]phenyl]-piperazin-1-yl-methanone] | 0.0398 to 0.316 nM | 25.1 to 158 nM |
| Cc1cccc(-c2nc(Nc3ccnc(Nc4ccc(C(=O)OCC5CNC5)cc4)n3)c3cccn3n2)n1 [Compound 1039, azetidin-3-ylmethyl 4-[[4-[[2-(6-methyl-2-pyridyl)pyrrolo[2,1-f][1,2,4]triazin-4-yl]amino]pyrimidin-2-yl]amino]benzoate] | 0.0398 to 0.316 nM | 25.1 to 158 nM |
| Cc1cccc(-c2nc(Nc3ccnc(Nc4ccc(NC5CNC5)cc4)n3)c3cccn3n2)n1 [Compound 1040, N2-[4-(azetidin-3-ylamino)phenyl]-N4-[2-(6-methyl-2-pyridyl)pyrrolo[2,1-f][1,2,4]triazin-4-yl]pyrimidine-2,4-diamine] | 0.0398 to 0.316 nM | 25.1 to 158 nM |
| Cc1cccc(-c2nc(Nc3ccnc(Nc4ccc(NC5CCNC5)cc4)n3)c3cccn3n2)n1 (stereo not shown) [Compound 1041, N4-[2-(6-methyl-2-pyridyl)pyrrolo[2,1-f][1,2,4]triazin-4-yl]-N2-[4-(pyrrolidin-3-ylamino)phenyl]pyrimidine-2,4-diamine] | 0.0398 to 0.316 nM | 25.1 to 158 nM |

The next lines start with results.

| Ki [2] | Compound | IC50 [1] |
| --- | --- | --- |
| 0.0398 to 0.316 nM | Cc1cccc(-c2nc(Nc3ccnc(Nc4ccc(NCC5CNC5)cc4)n3)c3cccn3n2)n1 [Compound 1016, N2-[4-(azetidin-3-ylmethylamino)phenyl]-N4-[2-(6-methyl-2-pyridyl)pyrrolo[2,1-f][1,2,4]triazin-4-yl]pyrimidine-2,4-diamine] | 25.1 to 158 nM |
| 0.0398 to 0.316 nM | Cc1cccc(-c2nc(Nc3ccnc(Nc4ccc(CC(=O)O)cc4)n3)c3cccn3n2)n1 [Compound 1018, 2-[4-[[4-[[2-(6-methyl-2-pyridyl)pyrrolo[2,1-f][1,2,4]triazin-4-yl]amino]pyrimidin-2-yl]amino]phenyl]acetic acid] | 25.1 to 158 nM |
| 0.0398 to 0.316 nM | COC(=O)c1ccc(Nc2nccc(Nc3nc(-c4cccc(C)n4)nn4cccc34)n2)cn1 [Compound 1024, methyl 5-[[4-[[2-(6-methyl-2-pyridyl)pyrrolo[2,1-f][1,2,4]triazin-4-yl]amino]pyrimidin-2-yl]amino]pyridine-2-carboxylate] | 25.1 to 158 nM |
| 0.0398 to 0.316 nM | Cc1cccc(-c2nc(Nc3ccnc(Nc4cc(C(=O)O)cs4)n3)c3cccn3n2)n1 [Compound 1025, 5-[[4-[[2-(6-methyl-2-pyridyl)pyrrolo[2,1-f][1,2,4]triazin-4-yl]amino]pyrimidin-2-yl]amino]thiophene-3-carboxylic acid] | 25.1 to 158 nM |
| 0.0398 to 0.316 nM | Cc1cccc(-c2nc(Nc3ccnc(Nc4ccc(NC(=O)C5CNC5)cc4)n3)c3cccn3n2)n1 [Compound 1026, N-[4-[[4-[[2-(6-methyl-2-pyridyl)pyrrolo[2,1-f][1,2,4]triazin-4-yl]amino]pyrimidin-2-yl]amino]phenyl]azetidine-3-carboxamide] | 25.1 to 158 nM |
| 0.0398 to 0.316 nM | Cc1cccc(-c2nc(Nc3ccnc(Nc4ccc(NC(=O)C5CCNC5)cc4)n3)c3cccn3n2)n1 (stereo not shown) [Compound 1027, N-[4-[[4-[[2-(6-methyl-2-pyridyl)pyrrolo[2,1-f][1,2,4]triazin-4-yl]amino]pyrimidin-2-yl]amino]phenyl]pyrrolidine-3-carboxamide] | 25.1 to 158 nM |
| 0.0398 to 0.316 nM | Cc1cccc(-c2nc(Nc3ccnc(Nc4ccc(NC(=O)C5CCNCC5)cc4)n3)c3cccn3n2)n1 [Compound 1028, N-[4-[[4-[[2-(6-methyl-2-pyridyl)pyrrolo[2,1-f][1,2,4]triazin-4-yl]amino]pyrimidin-2-yl]amino]phenyl]piperidine-4-carboxamide] | 25.1 to 158 nM |
| 0.0398 to 0.316 nM | Cc1cccc(-c2nc(Nc3ccnc(Nc4ccc(NC(=O)CC5CNC5)cc4)n3)c3cccn3n2)n1 [Compound 1029, 2-(azetidin-3-yl)-N-[4-[[4-[[2-(6-methyl-2-pyridyl)pyrrolo[2,1-f][1,2,4]triazin-4-yl]amino]pyrimidin-2-yl]amino]phenyl]acetamide] | 25.1 to 158 nM |
| 0.0398 to 0.316 nM | Cc1cccc(-c2nc(Nc3ccnc(Nc4ccc(NC(=O)[C@H]5C[C@@H](N)C5)cc4)n3)c3cccn3n2)n1 [Compound 1030, 3-amino-N-[4-[[4-[[2-(6-methyl-2-pyridyl)pyrrolo[2,1-f][1,2,4]triazin-4-yl]amino]pyrimidin-2-yl]amino]phenyl] cyclobutanecarboxamide] | 25.1 to 158 nM |
| 0.0398 to 0.316 nM | Cc1cccc(-c2nc(Nc3ccnc(Nc4ccc(NC(=O)C5(CO)CNC5)cc4)n3)c3cccn3n2)n1 [Compound 1031, 3-(hydroxymethyl)-N-[4-[[4-[[2-(6-methyl-2-pyridyl)pyrrolo[2,1-f][1,2,4]triazin-4-yl]amino]pyrimidin-2-yl]amino]phenyl]azetidine-3-carboxamide] | 25.1 to 158 nM |

— patent publication US20230399312A1, “SUBSTITUTED PYRIMIDINES AND METHODS OF USE” (THERAVANCE BIOPHARMA R&D IP, LLC, priority 2020, published 2023)
